Measurements reported in PMC10352165, “Miniaturized method for the quantification of persistent organic pollutants and their metabolites in HepG2 cells: assessment of their biotransformation” (Analytical and Bioanalytical Chemistry, 2023).
≈ marks a conversion by molar mass, not a printed value. Where two headings read alike, the source gives them in different places.

Tests used:
HepG2 cells [1] = test: Biotransformation experiment in HepG2 (concentration in cells and exposure medium); settings: for Biotransformation ratio between metabolites and PHE, cells / Biotransformation ratio between metabolites and PHE, medium: HepG2, 15 mg·L^−1 PHE; for Concentration in medium, t = 0 h: contaminated medium at time 0, 20 mg·L^−1 BDE-47 nominal; for Concentration in medium, no cells: contaminated medium without cells, 20 mg·L^−1 BDE-47, 48 h; for Biotransformation ratio between metabolites and BDE-47, cells / Biotransformation ratio between metabolites and BDE-47, medium: HepG2, 20 mg·L^−1 BDE-47, 48 h
[2] = cited from earlier work
[3] = cited from earlier work; remark: listed apart in the source
HepG2 cells [4] = system: HepG2 cells; parameters: method as in PMID 31426631; settings: 10% FBS in medium, evaporation losses considered, glass vials; cited from earlier work
HepG2 cells [5] = test: Plastic and glass plate exposure test (loss and cell uptake of compound); type: in vitro ADME
Method: Exposure of HepG2 cells (3 replicates) was performed by initially seeding approximately 2·10^6 cells in glass P100 plates and being incubated for 24 h at 37 °C (5% CO2) with 10 mL of DMEM supplemented with 10% FBS. […] The nominal exposure concentration was estimated by the previous MTT viability study, in which, more than 70% of the cells were alive at the end of the test (lethal concentration 30, LC30) to ensure good metabolizing capacity. Part of the contaminated medium was stored to determine the concentration at time 0 of exposure (“t = 0 h”). In addition, to consider possible analyte loss, a plate of control cells without pollutant (“blank”) and a plate with contaminated medium without cells (“no cells”) were incubated under the same conditions. […] Since the determination of PHE is carried out by LC-FL and its metabolites by GC–MS, the cell pellet was divided in half for each analysis. For this purpose, the adherent cells were lifted in suspension by trypsinization, and the total volume of the homogenous cell suspension was divided in half. Then, the resulting cell pellet from each fraction was collected by centrifuging at 1500 rpm for 5 min and removing the medium. However, for the determination of BDE-47 and its metabolites, the complete pellet obtained is analyzed because a simultaneous extraction is performed for both analyses. The obtained pellet was dried under a gentle stream of nitrogen, weighed on a precision analytical balance (± 0.00001 g), and stored at − 4 °C until analysis. Three independent assays were carried out with the same conditions, each with 3 replicates (plates) of the same concentration.
A major problem in in vitro cell assays is the loss of compound during the exposure process to estimate the effective concentration available to the cell and to correctly assess the toxicity and metabolization kinetics of POPs, as most of them are hydrophobic and semi-volatile. Firstly, when concentration was determined in the exposure and no cells medium samples at the end of the test (48 h) using plastic Petri dishes, a loss of 89% and 84% compared to the t = 0 h sample was found in the cells and no cells sample respectively (Table 1). This loss, similar to that found in previous studies, is mainly explained by absorption into polystyrene, the main component of in vitro culture plates or evaporation processes because these compounds have a Henry law constant (KH) between 1 and 10 Pa·m^3·mol^−1 [11] (7.90 Pa·m^3·mol^−1 for PHE at 35 °C [13] and 3.78 Pa·m^3·mol^−1 for BDE-47 at 40 °C [40]). The remaining concentration in the medium that had not been lost by evaporation or absorbed into the cells was retained in the protein serum. […] A fraction dissolved in the medium accessible to the cells of 3.5% for anthracene (log Kow 4.5) was obtained introducing the conditions of this work into the chemical partitioning model developed by Fischer et al.. […] Therefore, it should be considered to avoid the use of plastic in tests that requires P100 plates with a very high surface area/volume ratio of the medium when studying neutral chemicals with a log Kow > 3, as is the case of PHE (log Kow 4.46 [39]) and BDE-47 (log Kow 6.81 [26]).
Using glass plates, a loss of 47% and 26% for cells and no cells samples, respectively, was found at the end of the assay (48 h) (Table 1), and the concentration absorbed by the cells increased from 4 ± 1 to 18 ± 3%. For BDE-47, a loss of only 14% because of volatilization and an absorbed concentration of 24 ± 2% resulted using a glass plate, as BDE-47 is less volatile and more hydrophobic than PHE, favoring cell uptake. Birch et al. calculated a cell-free fraction of 13% for PHE in HepG2 cells with 10% of FBS in the medium considering the evaporation losses using glass vials. […]

HepG2 cells [6] = settings: 15 mg·L^−1
HepG2 = settings: cited from earlier work; for CC50: read-out: LC50 (the source's name)
MTT cell viability assay = type: cell-based; settings: human
Method: (§1) Cell viability was determined by MTT assay. First, 10,000 cells/well were cultured in 96-well plates for 24 h at 37 °C and 5% CO2. After that time, the culture medium was replaced with a culture medium containing different concentrations (0–70 mg·L^−1) of PHE and BDE-47 for 48 h of exposure under the same incubated conditions. After that, 20 μL MTT solution (5 mg·mL^−1 diluted in PBS) was added and incubated for the following 4 h. Viable cellular metabolic reduction of MTT produced formazan crystals, which were dissolved in 100 μL sterile DMSO and quantified with absorbance measurement at 595 nm in a Multiskan Sky High ([…] Thermo Fisher). The cell viability was estimated by using Eq. (1). 1 %Viability=Aexp-Ablank/Acontrol-Ablank∙100 where Acontrol, Aexp, and Ablank are the mean absorbance value (6 replicates) of the control group (cells without pollutant), experimental group, and blank group (only cell culture medium), respectively. Five independent assays were carried out with the same conditions. The results have been subsequently used for the design of the biotransformation experiment.
(§2) Cell viability of each concentration was estimated by using Eq. (1) according to the absorbance values obtained in the MTT assay. The dose–response values were fitted by Origin Pro 2021 with a polynomial equation (shown in Fig. 3) from which the LC value was estimated. LC50 (50% viability) and LC30 (70% viability) were estimated by the polynomial fitting of the mean cell viability data obtained from three independent experiments. Cell viability in HepG2 decreased by 30% at 22 mg·L^−1 PHE and 38 mg·L^−1 BDE-47 and up to 50% at 38 mg·L^−1 PHE and 46 mg·L^−1 BDE-47. […] The calculated LC30 values have been subsequently used for the design of the biotransformation experiments.

HepG2 cells [7] = test: MTT cell viability assay; type: cell-based
Method: as §1, §2

[8] = parameters: method as in PMID 18318592; settings: cited from earlier work
[9] = HepG2 exposed to 15 mg·L^−1 PHE, 48 h, metabolites
[10] = HepG2 exposed to 20 mg·L^−1 BDE-47, 48 h, metabolites
[11] = HepG2 exposed to 20 mg·L^−1 BDE-47, 48 h, parent compound

Compound: Oc1ccc2c(ccc3ccccc32)c1 [2-OH-PHE]
- Biotransformation ratio between metabolites and PHE, cells (HepG2 cells [1]; 48 h): 0.06
- Biotransformation ratio between metabolites and PHE, medium (HepG2 cells [1]; 48 h): 0.15
- Concentration in cells, samples (n = 3) (HepG2 cells [1]; [9]): 284 ± 92 ng/g
- Concentration in medium, samples (HepG2 cells [1]; [9]): 5.2 ± 0.9 ng/mL

Compound: Oc1cc(Br)ccc1Oc1ccc(Br)cc1Br [2’-OH-BDE-28]
- Concentration in cells, samples (HepG2 cells [1]; [10]): 0.11 ± 0.09 ng/g
- Concentration in medium, samples (HepG2 cells [1]; [10]): 3.2 ± 0.2 ng/mL

Compound: c1ccc2c(c1)ccc1ccccc12 [PHE, phenanthrene]
- Henry law constant (KH) ([2]; at 35 °C): 7.90 Pa·m^3·mol^−1
- log Kow [3]: 4.46
- cell-free fraction (HepG2 cells [4]): 13%
- Conc. PHE Glass plate exposure (HepG2 cells [5]; 0 h): 4370 ng/mL
- Conc. PHE Plastic plate exposure (HepG2 cells [5]; 0 h): 5570 ng/mL
- Conc. PHE Glass plate exposure (HepG2 cells [5]; 24 h): 3690 ng/mL
- Conc. PHE Glass plate exposure (HepG2 cells [5]; 48 h): 3160 ng/mL
- Conc. PHE Plastic plate exposure (HepG2 cells [5]; 48 h): 880 ng/mL
- loss at the end of the assay (HepG2 cells [5]; 48 h): 26%
- loss compared to the t = 0 h sample (HepG2 cells [5]; 48 h): 84%
- concentration absorbed by the cells (HepG2 cells [5]; human, 48 h): 18 ± 3%
- loss at the end of the assay (HepG2 cells [5]; human, 48 h): 47%
- loss compared to the t = 0 h sample (HepG2 cells [5]; human, 48 h): 89%
- taken up by the cells (HepG2 cells [5]; human, 48 h): 4 ± 1%
- Concentration in medium, t = 0 h (HepG2 cells [6]; 0 h): 12000 ± 1000 ng/mL
- Concentration in medium, no cells (HepG2 cells [6]; 48 h): 8000 ± 2000 ng/mL
- Concentration in cells, samples (n = 3) (HepG2 cells [6]; human, 48 h): 521 ± 144 µg/g
- Concentration in medium, samples (HepG2 cells [6]; human, 48 h): 5700 ± 700 ng/mL
- LC50 (HepG2; HepG2 at 48 h of PHE exposure): 20.3 µg/mL (≈ 114 µM)
- CC50 (HepG2; HepG2 at 48 h of PHE exposure): 114 µM
- CC50 at 48 h (MTT cell viability assay): 38 µg/mL (≈ 213 µM)
- LC30 (70% viability; cell viability decreased by 30%) (HepG2 cells [7]; human, 48 h): 22 µg/mL (≈ 123 µM)
- absorption when glass is used ([8]; glass): 2%
- initial concentration absorbed on polystyrene ([8]; polystyrene): 94%

Compound: Brc1ccc(Oc2ccc(Br)cc2Br)cc1 [BDE-28]
- Concentration in cells, samples (HepG2 cells [1]; [10]): 18 ± 5 ng/g
- Concentration in medium, samples (HepG2 cells [1]; [10]): 577 ± 92 ng/mL
- Concentration in medium, t = 0 h (HepG2 cells [1]; metabolites): 662 ± 18 ng/mL
- Concentration in medium, no cells (HepG2 cells [1]; metabolites): 651 ± 36 ng/mL

Compound: Oc1cc(Oc2ccc(Br)cc2Br)c(Br)cc1Br [5-OH-BDE-47]
- Biotransformation ratio between metabolites and BDE-47, cells (HepG2 cells [1]): 0.01
- Biotransformation ratio between metabolites and BDE-47, medium (HepG2 cells [1]): 0.06
- Concentration in cells, samples (HepG2 cells [1]; [10]): 0.27 ± 0.08 ng/g
- Concentration in medium, samples (HepG2 cells [1]; [10]): 6.2 ± 0.5 ng/mL

Compound: COc1cc(Oc2ccc(Br)cc2Br)c(Br)cc1Br [5-MeO-BDE-47]
- Biotransformation ratio between metabolites and BDE-47, cells (HepG2 cells [1]): 0.03
- Biotransformation ratio between metabolites and BDE-47, medium (HepG2 cells [1]): 0.01
- Concentration in cells, samples (HepG2 cells [1]; [10]): 0.12 ± 0.02 ng/g
- Concentration in medium, samples (HepG2 cells [1]; [10]): 1.2 ± 0.9 ng/mL

Compound: Brc1ccc(Oc2ccc(Br)cc2Br)c(Br)c1 [BDE-47, 2,2′,4,4′-tetrabromodiphenyl ether]
- Henry law constant (KH) ([2]; at 40 °C): 3.78 Pa·m^3·mol^−1
- log Kow [3]: 6.81
- Concentration in cells, samples (HepG2 cells [1]; [11]): 737000 ± 120000 ng/g
- Concentration in medium, samples (HepG2 cells [1]; [11]): 13000 ± 2000 ng/mL
- Concentration in medium, t = 0 h (HepG2 cells [1]): 16000 ± 1000 ng/mL
- Concentration in medium, no cells (HepG2 cells [1]): 14000 ± 3000 ng/mL
- loss because of volatilization (HepG2 cells [5]; glass plate): 14%
- concentration absorbed by the cells (HepG2 cells [5]; glass plates, 48 h): 24 ± 2%
- LC50 (HepG2; HepG2, BDE-47): 48.6 µg/mL (≈ 100 µM)
- CC50 (HepG2; HepG2, BDE-47): 100 µM
- CC50 at 48 h (MTT cell viability assay; HepG2, 48 h of exposure, MTT, polynomial fitting, read-out: LC50 (50% viability)): 46 µg/mL (≈ 94.7 µM)
- LC30 (70% viability; cell viability decreased by 30%) (HepG2 cells [7]; HepG2, 48 h of exposure, MTT, polynomial fitting): 38 µg/mL (≈ 78.2 µM)

Compound: Oc1c(Br)ccc(Oc2ccc(Br)cc2Br)c1Br [3-OH-BDE-47]
- Biotransformation ratio between metabolites and BDE-47, cells (HepG2 cells [1]): 0.01
- Biotransformation ratio between metabolites and BDE-47, medium (HepG2 cells [1]): 0.04
- Concentration in cells, samples (HepG2 cells [1]; [10]): 0.21 ± 0.10 ng/g
- Concentration in medium, samples (HepG2 cells [1]; [10]): 4.3 ± 0.2 ng/mL

Compound: Oc1ccc2ccc3ccccc3c2c1 [3-OH-PHE]
- Biotransformation ratio between metabolites and PHE, cells (HepG2 cells [1]; 48 h): 0.04
- Biotransformation ratio between metabolites and PHE, medium (HepG2 cells [1]; 48 h): 0.13
- Concentration in cells, samples (n = 3) (HepG2 cells [1]; [9]): 195 ± 33 ng/g
- Concentration in medium, samples (HepG2 cells [1]; [9]): 4.0 ± 0.7 ng/mL

Compound: Oc1cccc2c1ccc1ccccc12 [1-OH-PHE]
- Biotransformation ratio between metabolites and PHE, cells (HepG2 cells [1]; 48 h): 0.01
- Biotransformation ratio between metabolites and PHE, medium (HepG2 cells [1]; 48 h): 0.22
- Concentration in cells, samples (n = 3) (HepG2 cells [1]; [9]): 72 ± 27 ng/g
- Concentration in medium, samples (HepG2 cells [1]; [9]): 7.7 ± 0.9 ng/mL

Compound: Oc1cccc2ccc3ccccc3c12 [4-OH-PHE]
- Biotransformation ratio between metabolites and PHE, cells (HepG2 cells [1]; 48 h): 0.05
- Biotransformation ratio between metabolites and PHE, medium (HepG2 cells [1]; 48 h): 0.16
- Concentration in cells, samples (n = 3) (HepG2 cells [1]; [9]): 260 ± 85 ng/g
- Concentration in medium, samples (HepG2 cells [1]; [9]): 5 ± 1 ng/mL

Compound: c1ccc2cc3ccccc3cc2c1 [anthracene, reference compound]
- log Kow ([3]; value used with the partitioning model): 4.5

Compound: COc1c(Br)ccc(Oc2ccc(Br)cc2Br)c1Br [3-MeO-BDE-47]
- metabolite detection after exposure (in words) (HepG2 cells [1]; HepG2 exposed to 20 mg·L^−1 BDE-47, 48 h): No quantifiable amounts
